Drawing on US20220281876A1, “DEGRADATION OF BRUTON'S TYROSINE KINASE (BTK) BY CONJUGATION OF BTK INHIBITORS WITH E3 LIGASE LIGAND AND METHODS OF USE” (BEIGENE, LTD., priority 2019, published 2022), this text covers DC50 for 13 compounds.

The target in this test is T1, BTK (Homo sapiens, UniProt Q06187).
T1 construct: endogenous in cells; host or cells: Ramos cells
The experiment in a line: BTK cell degradation in Ramos cells (total BTK ELISA). The test is classed as cell-based. Particulars: 16 h incubation, FastScan total BTK ELISA. On the procedure: Ramos cells are treated with compounds diluted in 0.1% DMSO, dilution is done according to the following protocol: (1) make 1000x stock solution in DMSO from 10 mM by 5-fold dilution, total 7 doses were included; (2) make 10x solution in cell culture medium by transferring 1 ul 1000x stock solution into 99 ul medium; (3) 11 ul of 10× solution is added to cells and incubate for 16 h.
Cells in 96 well plate are harvested by centrifugation (1200 rpm), and wash once with ice-cold PBS. Then, 100 ul 1×cell extraction buffer is added in each well. The cells are placed on a shaker for 20 min at 4° C.; 5 ul lysate is transferred to 45 ul of 1×cell extraction buffer in ELISA plate, and 50 ul of the antibody cocktail is added in each well; seal the plate and incubate 1 hour at room temperature on a plate shaker; medium is discarded from the plate, tap the plated on a paper towel, wash 3×200 ul ELISA wash buffer; add 100 ul of TMB to each well and incubate the plate in the dark for 15 min at room temperature on a shaker; add 100 ul of STOP solution to each well; read absorbance at 450 nm. The BTK ELISA assay was performed using FastScan total BTK ELISA kit (Cell Signaling Cat #36609).
On the technique in general: ELISA stands for enzyme-linked immunosorbent assay.

T1 sequence (Q06187 whole entry): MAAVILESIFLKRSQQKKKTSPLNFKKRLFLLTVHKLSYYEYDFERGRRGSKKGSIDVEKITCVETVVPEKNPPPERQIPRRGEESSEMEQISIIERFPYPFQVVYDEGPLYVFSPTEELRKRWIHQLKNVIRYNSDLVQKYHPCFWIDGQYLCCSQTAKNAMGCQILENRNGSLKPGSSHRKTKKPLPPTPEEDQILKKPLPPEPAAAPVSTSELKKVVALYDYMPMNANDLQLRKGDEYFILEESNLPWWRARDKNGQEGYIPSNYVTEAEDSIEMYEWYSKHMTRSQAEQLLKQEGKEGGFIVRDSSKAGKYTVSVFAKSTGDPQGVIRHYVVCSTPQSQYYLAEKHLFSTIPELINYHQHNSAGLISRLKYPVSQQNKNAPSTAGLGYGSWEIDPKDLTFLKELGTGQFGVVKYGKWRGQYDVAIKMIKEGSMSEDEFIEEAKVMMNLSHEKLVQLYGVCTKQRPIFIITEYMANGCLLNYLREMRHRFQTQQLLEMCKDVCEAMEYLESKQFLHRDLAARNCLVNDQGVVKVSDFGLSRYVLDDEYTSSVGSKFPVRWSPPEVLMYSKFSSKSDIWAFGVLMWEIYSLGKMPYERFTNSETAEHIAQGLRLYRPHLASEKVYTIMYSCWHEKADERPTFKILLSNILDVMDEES

For the compound `NC(=O)c1c(-c2ccc(Oc3ccccc3)cc2)nn2c1NCCC2C1CCN(C(=O)CC2CCC(N3CCN(c4ccc5c(c4)C(=O)N(C4CCC(=O)NC4=O)C5=O)CC3)CC2)CC1` (stereo in doubt) [Example 147, (7R)-7-(1-(2-(4-(4-(2-(2,6-dioxopiperidin-3-yl)-1,3-dioxoisoindolin-5-yl)piperazin-1-yl)cyclohexyl)acetyl)piperidin-4-yl)-2-(4-phenoxyphenyl)-4,5,6,7-tetrahydropyrazolo[1,5-a]pyrimidine-3-carboxamide], the DC50 (in general, the midpoint of the concentration-degradation curve) is 0.244 µM.

Take `NC(=O)c1c(-c2ccc(Oc3ccccc3)cc2)nn2c1NCC[C@H]2C1CCN(C(=O)c2cn(CCOCCCc3cccc4c3CN(C3CCC(=O)NC3=O)C4=O)nn2)CC1` (stereo partly drawn) [Example 1, (7S)-7-(1-(1-(2-(3-(2-(2,6-dioxopiperidin-3-yl)-1-oxoisoindolin-4-yl)propoxy)ethyl)-1H-1,2,3-triazole-4-carbonyl)piperidin-4-yl)-2-(4-phenoxyphenyl)-4,5,6,7-tetrahydropyrazolo[1,5-a]pyrimidine-3-carboxamide]: the DC50 was above 10 µM.

In turn, `NC(=O)c1c(-c2ccc(Oc3ccccc3)cc2)nn2c1NCC[C@H]2C1CCN(C(=O)c2cn(CCOCCNc3cccc4c3C(=O)N(C3CCC(=O)NC3=O)C4=O)nn2)CC1` (stereo partly drawn) [Example 2, (7S)-7-(1-(1-(2-(2-((2-(2,6-dioxopiperidin-3-yl)-1,3-dioxoisoindolin-4-yl)amino)ethoxy)ethyl)-1H-1,2,3-triazole-4-carbonyl)piperidin-4-yl)-2-(4-phenoxyphenyl)-4,5,6,7-tetrahydropyrazolo[1,5-a]pyrimidine-3-carboxamide] yielded a DC50 above 10 µM.

Turning to `NC(=O)c1c(-c2ccc(Oc3ccccc3)cc2)nn2c1NCC[C@H]2C1CCN(C(=O)c2cn(CCOCCOCCNc3cccc4c3C(=O)N(C3CCC(=O)NC3=O)C4=O)nn2)CC1` (stereo partly drawn) [Example 3, (7S)-7-(1-(1-(2-(2-(2-((2-(2,6-dioxopiperidin-3-yl)-1,3-dioxoisoindolin-4-yl)amino)ethoxy)ethoxy)ethyl)-1H-1,2,3-triazole-4-carbonyl)piperidin-4-yl)-2-(4-phenoxyphenyl)-4,5,6,7-tetrahydropyrazolo[1,5-a]pyrimidine-3-carboxamide], the DC50 was above 10 µM.

Take `NC(=O)c1c(-c2ccc(Oc3ccccc3)cc2)nn2c1NCC[C@H]2C1CCN(C(=O)c2cn(CCOCCOCC#Cc3cccc4c3CN(C3CCC(=O)NC3=O)C4=O)nn2)CC1` (stereo partly drawn) [Example 4, (7S)-7-(1-(1-(2-(2-((3-(2-(2,6-dioxopiperidin-3-yl)-1-oxoisoindolin-4-yl)prop-2-yn-1-yl)oxy)ethoxy)ethyl)-1H-1,2,3-triazole-4-carbonyl)piperidin-4-yl)-2-(4-phenoxyphenyl)-4,5,6,7-tetrahydropyrazolo[1,5-a]pyrimidine-3-carboxamide]: the DC50 is above 10 µM.

Turning to `NC(=O)c1c(-c2ccc(Oc3ccccc3)cc2)nn2c1NCC[C@H]2C1CCN(C(=O)c2cn(CCOCCOCCCc3cccc4c3CN(C3CCC(=O)NC3=O)C4=O)nn2)CC1` (stereo partly drawn) [Example 5, (7S)-7-(1-(1-(2-(2-(3-(2-(2,6-dioxopiperidin-3-yl)-1-oxoisoindolin-4-yl)propoxy)ethoxy)ethyl)-1H-1,2,3-triazole-4-carbonyl)piperidin-4-yl)-2-(4-phenoxyphenyl)-4,5,6,7-tetrahydropyrazolo[1,5-a]pyrimidine-3-carboxamide], the DC50 was above 10 µM.

Turning to `NC(=O)c1c(-c2ccc(Oc3ccccc3)cc2)nn2c1NCC[C@H]2C1CCN(C(=O)c2cn(CCOCCOCCOCCCc3cccc4c3CN(C3CCC(=O)NC3=O)C4=O)nn2)CC1` (stereo partly drawn) [Example 6, (7S)-7-(1-(1-(2-(2-(2-(3-(2-(2,6-dioxopiperidin-3-yl)-1-oxoisoindolin-4-yl)propoxy)ethoxy)ethoxy)ethyl)-1H-1,2,3-triazole-4-carbonyl)piperidin-4-yl)-2-(4-phenoxyphenyl)-4,5,6,7-tetrahydropyrazolo[1,5-a]pyrimidine-3-carboxamide], the 50% degradation concentration (DC50) is 0.242 µM.

`NC(=O)c1c(-c2ccc(Oc3ccccc3)cc2)nn2c1NCC[C@H]2C1CCN(C(=O)c2cn(CCOCCOCCNc3ccc4c(c3)C(=O)N(C3CCC(=O)NC3=O)C4=O)nn2)CC1` (stereo partly drawn) [Example 7, (7S)-7-(1-(1-(2-(2-(2-((2-(2,6-dioxopiperidin-3-yl)-1,3-dioxoisoindolin-5-yl)amino)ethoxy)ethoxy)ethyl)-1H-1,2,3-triazole-4-carbonyl)piperidin-4-yl)-2-(4-phenoxyphenyl)-4,5,6,7-tetrahydropyrazolo[1,5-a]pyrimidine-3-carboxamide] displayed a DC50 above 10 µM.

Consider `NC(=O)c1c(-c2ccc(Oc3ccccc3)cc2)nn2c1NCC[C@H]2C1CCN(C(=O)c2cn(CCOCCOCCOCCNc3cccc4c3C(=O)N(C3CCC(=O)NC3=O)C4=O)nn2)CC1` (stereo partly drawn) [Example 8, (7S)-7-(1-(1-(2-(2-(2-(2-((2-(2,6-dioxopiperidin-3-yl)-1,3-dioxoisoindolin-4-yl)amino)ethoxy)ethoxy)ethoxy)ethyl)-1H-1,2,3-triazole-4-carbonyl)piperidin-4-yl)-2-(4-phenoxyphenyl)-4,5,6,7-tetrahydropyrazolo[1,5-a]pyrimidine-3-carboxamide], for which the DC50 amounted to 0.128 µM. That is a sub-micromolar value.

As to `NC(=O)c1c(-c2ccc(Oc3ccccc3)cc2)nn2c1NCC[C@H]2C1CCN(C(=O)c2cn(CCOCCOCCOCC#Cc3cccc4c3CN(C3CCC(=O)NC3=O)C4=O)nn2)CC1` (stereo partly drawn) [Example 9, (7S)-7-(1-(1-(2-(2-(2-((3-(2-(2,6-dioxopiperidin-3-yl)-1-oxoisoindolin-4-yl)prop-2-yn-1-yl)oxy)ethoxy)ethoxy)ethyl)-1H-1,2,3-triazole-4-carbonyl)piperidin-4-yl)-2-(4-phenoxyphenyl)-4,5,6,7-tetrahydropyrazolo[1,5-a]pyrimidine-3-carboxamide], the DC50 was above 10 µM.

Compound `NC(=O)c1c(-c2ccc(Oc3ccccc3)cc2)nn2c1NCC[C@H]2C1CCN(C(=O)c2cn(CCOCCOCCOCCOCCCc3cccc4c3CN(C3CCC(=O)NC3=O)C4=O)nn2)CC1` (stereo partly drawn) [Example 10, (7S)-7-(1-(1-(15-(2-(2,6-dioxopiperidin-3-yl)-1-oxoisoindolin-4-yl)-3,6,9, 12-tetraoxapentadecyl)-1H-1,2,3-triazole-4-carbonyl)piperidin-4-yl)-2-(4-phenoxyphenyl)-4,5,6,7-tetrahydropyrazolo[1,5-a]pyrimidine-3-carboxamide] registered a DC50 above 10 µM.

The compound `NC(=O)c1c(-c2ccc(Oc3ccccc3)cc2)nn2c1NCC[C@H]2C1CCN(C(=O)c2cn(CCOCCOCCOCCOCC#Cc3cccc4c3CN(C3CCC(=O)NC3=O)C4=O)nn2)CC1` (stereo partly drawn) [Example 11, (7S)-7-(1-(1-(15-(2-(2,6-dioxopiperidin-3-yl)-1-oxoisoindolin-4-yl)-3,6,9, 12-tetraoxapentadec-14-yn-1-yl)-1H-1,2,3-triazole-4-carbonyl)piperidin-4-yl)-2-(4-phenoxyphenyl)-4,5,6,7-tetrahydropyrazolo[1,5-a]pyrimidine-3-carboxamide] yielded a DC50 of 0.176 µM. In other words, the sub-micromolar range.

Consider `NC(=O)c1c(-c2ccc(Oc3ccccc3)cc2)nn2c1NCC[C@H]2C1CCN(C(=O)c2cn(CCOCCOCCOCCOCCNc3ccc4c(c3)C(=O)N(C3CCC(=O)NC3=O)C4=O)nn2)CC1` (stereo partly drawn) [Example 12, (7S)-7-(1-(1-(14-((2-(2,6-dioxopiperidin-3-yl)-1,3-dioxoisoindolin-5-yl)amino)-3,6,9, 12-tetraoxatetradecyl)-1H-1,2,3-triazole-4-carbonyl)piperidin-4-yl)-2-(4-phenoxyphenyl)-4,5,6,7-tetrahydropyrazolo[1,5-a]pyrimidine-3-carboxamide], for which the DC50 was above 10 µM.
